From paper PMC11233931, “Remodeling tumor‐associated macrophage for anti‐cancer effects by rational design of irreversible inhibition of mitogen‐activated protein kinase‐activated protein kinase 2” (MedComm, 2024)

Legend:
Assay in all cases: Eurofins kinase selectivity profile against 380 other human recombinant kinases (Table S2)
Type in all cases: biochemical
[1] = molecular target: T1, 380 human recombinant protein kinases (Homo sapiens, UniProt Q04771); details: ALK2(h), read-out: Inhibition rate
T1 construct: purchased Eurofins (Celle Lévescault)
T1 sequence (Q04771 21-509): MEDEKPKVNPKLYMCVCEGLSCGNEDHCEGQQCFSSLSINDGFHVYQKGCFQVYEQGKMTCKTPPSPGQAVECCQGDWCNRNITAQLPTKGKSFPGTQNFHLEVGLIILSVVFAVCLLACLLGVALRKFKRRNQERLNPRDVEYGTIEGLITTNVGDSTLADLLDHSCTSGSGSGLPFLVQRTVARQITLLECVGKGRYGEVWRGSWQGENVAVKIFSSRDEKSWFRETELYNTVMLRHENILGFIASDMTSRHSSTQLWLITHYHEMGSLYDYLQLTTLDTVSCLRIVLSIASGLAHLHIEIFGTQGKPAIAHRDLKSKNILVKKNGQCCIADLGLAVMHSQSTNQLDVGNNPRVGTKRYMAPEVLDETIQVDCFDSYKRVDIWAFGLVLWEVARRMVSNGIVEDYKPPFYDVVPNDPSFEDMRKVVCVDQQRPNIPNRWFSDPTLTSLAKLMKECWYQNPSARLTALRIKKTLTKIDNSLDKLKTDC
In short: (§1)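 Values come from a contract kinase-profiling service that tested the compound at multiple concentrations across 380 recombinant human kinases, as an off-target check against the MK2 activity.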

[2] = molecular target: T2, 380 human recombinant protein kinases (Homo sapiens, UniProt Q86Y07); details: VRK2(h), read-out: Inhibition rate (%)
T2 construct: purchased Eurofins (Celle Lévescault)
T2 sequence (Q86Y07 whole entry): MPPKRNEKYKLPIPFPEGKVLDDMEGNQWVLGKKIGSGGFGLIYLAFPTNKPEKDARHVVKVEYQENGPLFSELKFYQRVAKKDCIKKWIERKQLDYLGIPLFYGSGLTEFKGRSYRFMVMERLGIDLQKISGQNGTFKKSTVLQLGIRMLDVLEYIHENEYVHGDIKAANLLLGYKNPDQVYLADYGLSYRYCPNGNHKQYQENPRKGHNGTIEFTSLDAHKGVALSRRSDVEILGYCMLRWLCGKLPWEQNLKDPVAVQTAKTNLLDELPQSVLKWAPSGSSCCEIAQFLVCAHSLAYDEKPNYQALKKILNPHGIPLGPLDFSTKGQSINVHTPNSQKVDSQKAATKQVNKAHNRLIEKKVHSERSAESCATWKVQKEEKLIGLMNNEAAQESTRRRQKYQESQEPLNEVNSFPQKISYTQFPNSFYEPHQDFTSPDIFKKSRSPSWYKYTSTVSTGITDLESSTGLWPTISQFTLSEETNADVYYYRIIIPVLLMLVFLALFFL
In short: as §1

[3] = molecular target: T3, 380 human recombinant protein kinases (Homo sapiens, UniProt P51956); details: NEK3(h), read-out: Inhibition rate
T3 construct: purchased Eurofins (Celle Lévescault)
T3 sequence (P51956 1-506): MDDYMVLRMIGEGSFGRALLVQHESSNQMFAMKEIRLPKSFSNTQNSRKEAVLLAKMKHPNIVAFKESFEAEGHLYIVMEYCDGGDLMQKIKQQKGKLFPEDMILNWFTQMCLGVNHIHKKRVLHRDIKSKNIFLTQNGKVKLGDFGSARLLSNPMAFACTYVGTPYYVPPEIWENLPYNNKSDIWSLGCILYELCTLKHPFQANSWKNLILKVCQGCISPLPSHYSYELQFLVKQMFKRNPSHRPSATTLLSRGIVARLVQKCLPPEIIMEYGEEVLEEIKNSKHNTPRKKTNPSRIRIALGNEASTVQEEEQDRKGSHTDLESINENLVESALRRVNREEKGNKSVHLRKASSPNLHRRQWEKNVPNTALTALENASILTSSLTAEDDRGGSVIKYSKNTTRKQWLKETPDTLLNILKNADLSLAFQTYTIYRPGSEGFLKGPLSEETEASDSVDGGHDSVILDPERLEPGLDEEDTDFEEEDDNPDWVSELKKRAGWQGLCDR
In short: as §1

[4] = molecular target: T4, 380 human recombinant protein kinases (Homo sapiens, UniProt P16591); details: Fer(h), read-out: Inhibition rate
T4 construct: purchased Eurofins (Celle Lévescault)
T4 sequence (P16591 whole entry): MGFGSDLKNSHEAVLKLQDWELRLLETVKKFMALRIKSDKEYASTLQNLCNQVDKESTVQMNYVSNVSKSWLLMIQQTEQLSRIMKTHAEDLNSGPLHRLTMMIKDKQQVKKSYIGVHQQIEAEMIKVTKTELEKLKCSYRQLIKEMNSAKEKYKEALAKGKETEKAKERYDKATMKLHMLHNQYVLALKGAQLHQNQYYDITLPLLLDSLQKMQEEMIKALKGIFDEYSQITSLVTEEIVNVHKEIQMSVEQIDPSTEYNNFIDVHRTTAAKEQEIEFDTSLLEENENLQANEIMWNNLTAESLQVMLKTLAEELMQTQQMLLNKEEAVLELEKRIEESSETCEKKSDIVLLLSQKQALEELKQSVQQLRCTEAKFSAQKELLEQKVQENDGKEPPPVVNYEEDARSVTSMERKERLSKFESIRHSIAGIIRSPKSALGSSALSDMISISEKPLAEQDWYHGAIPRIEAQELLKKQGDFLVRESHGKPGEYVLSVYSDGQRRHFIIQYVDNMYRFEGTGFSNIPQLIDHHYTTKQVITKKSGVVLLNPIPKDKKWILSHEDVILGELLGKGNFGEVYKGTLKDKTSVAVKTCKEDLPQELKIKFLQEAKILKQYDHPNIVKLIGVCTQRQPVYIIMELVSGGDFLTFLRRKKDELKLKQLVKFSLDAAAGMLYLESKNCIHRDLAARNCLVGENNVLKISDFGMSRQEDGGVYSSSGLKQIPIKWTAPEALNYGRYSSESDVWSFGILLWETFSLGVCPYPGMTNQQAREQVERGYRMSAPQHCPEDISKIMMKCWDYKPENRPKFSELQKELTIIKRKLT
In short: as §1

[5] = molecular target: T5, 380 human recombinant protein kinases (Homo sapiens, UniProt P42338); details: PI3 Kinase (p110β/p85α)(h), read-out: Inhibition rate (%)
T5 construct: purchased Eurofins (Celle Lévescault)
T5 sequence (P42338 whole entry): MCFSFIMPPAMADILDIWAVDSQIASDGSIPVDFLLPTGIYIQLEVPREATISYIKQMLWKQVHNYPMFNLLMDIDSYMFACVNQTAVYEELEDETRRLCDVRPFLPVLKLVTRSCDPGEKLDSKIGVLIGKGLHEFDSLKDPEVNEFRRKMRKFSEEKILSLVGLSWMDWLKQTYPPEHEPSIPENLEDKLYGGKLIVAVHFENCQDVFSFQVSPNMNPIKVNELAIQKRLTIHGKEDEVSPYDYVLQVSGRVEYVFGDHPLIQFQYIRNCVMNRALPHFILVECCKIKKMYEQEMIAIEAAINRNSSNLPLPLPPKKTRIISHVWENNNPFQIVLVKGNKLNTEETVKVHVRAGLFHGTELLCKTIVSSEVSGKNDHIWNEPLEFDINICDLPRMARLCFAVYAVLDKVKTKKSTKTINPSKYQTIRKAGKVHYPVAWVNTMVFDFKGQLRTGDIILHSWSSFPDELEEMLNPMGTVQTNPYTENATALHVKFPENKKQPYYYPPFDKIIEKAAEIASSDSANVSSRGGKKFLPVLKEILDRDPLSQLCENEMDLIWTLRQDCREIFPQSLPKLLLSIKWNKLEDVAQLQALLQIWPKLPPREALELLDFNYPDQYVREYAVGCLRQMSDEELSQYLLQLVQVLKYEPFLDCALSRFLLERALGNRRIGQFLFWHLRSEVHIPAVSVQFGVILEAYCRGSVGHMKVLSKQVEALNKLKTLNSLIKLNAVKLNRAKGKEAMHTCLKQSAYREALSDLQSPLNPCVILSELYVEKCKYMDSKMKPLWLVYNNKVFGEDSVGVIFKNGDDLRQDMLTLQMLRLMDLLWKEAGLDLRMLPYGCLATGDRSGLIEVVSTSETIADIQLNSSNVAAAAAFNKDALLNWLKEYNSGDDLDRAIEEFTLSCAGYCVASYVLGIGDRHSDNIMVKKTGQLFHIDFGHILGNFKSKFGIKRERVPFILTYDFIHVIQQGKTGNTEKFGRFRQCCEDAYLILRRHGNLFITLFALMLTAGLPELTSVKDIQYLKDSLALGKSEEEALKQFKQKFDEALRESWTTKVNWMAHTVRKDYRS
In short: as §1

[6] = molecular target: T6, 380 human recombinant protein kinases (Homo sapiens, UniProt Q8IY84); details: NIM1(h), read-out: Inhibition rate
T6 construct: purchased Eurofins (Celle Lévescault)
T6 sequence (Q8IY84 whole entry): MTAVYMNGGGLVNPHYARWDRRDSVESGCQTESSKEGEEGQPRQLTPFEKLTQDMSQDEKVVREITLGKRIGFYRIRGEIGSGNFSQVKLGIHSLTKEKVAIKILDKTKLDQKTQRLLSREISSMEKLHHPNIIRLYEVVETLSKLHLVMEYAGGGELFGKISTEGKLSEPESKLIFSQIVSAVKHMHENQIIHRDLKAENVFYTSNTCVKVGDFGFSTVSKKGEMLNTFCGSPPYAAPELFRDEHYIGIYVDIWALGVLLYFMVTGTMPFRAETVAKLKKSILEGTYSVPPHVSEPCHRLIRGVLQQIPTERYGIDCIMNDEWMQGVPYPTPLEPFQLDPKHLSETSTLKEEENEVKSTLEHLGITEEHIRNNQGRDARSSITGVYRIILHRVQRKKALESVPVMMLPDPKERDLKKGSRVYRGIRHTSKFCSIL
In short: as §1

[7] = molecular target: T7, 380 human recombinant protein kinases (Homo sapiens, UniProt Q96SB4); details: SRPK1(h), read-out: Inhibition rate (%)
T7 construct: purchased Eurofins (Celle Lévescault)
In short: as §1

[8] = molecular target: T8, 380 human recombinant protein kinases (Homo sapiens, UniProt Q96RR4); details: CaMKK2(h), read-out: Inhibition rate
T8 construct: purchased Eurofins (Celle Lévescault)
In short: as §1

[9] = molecular target: T9, 380 human recombinant protein kinases (Homo sapiens, UniProt P41240); details: CSK(h), read-out: Inhibition rate
T9 construct: purchased Eurofins (Celle Lévescault)
T9 sequence (P41240 whole entry): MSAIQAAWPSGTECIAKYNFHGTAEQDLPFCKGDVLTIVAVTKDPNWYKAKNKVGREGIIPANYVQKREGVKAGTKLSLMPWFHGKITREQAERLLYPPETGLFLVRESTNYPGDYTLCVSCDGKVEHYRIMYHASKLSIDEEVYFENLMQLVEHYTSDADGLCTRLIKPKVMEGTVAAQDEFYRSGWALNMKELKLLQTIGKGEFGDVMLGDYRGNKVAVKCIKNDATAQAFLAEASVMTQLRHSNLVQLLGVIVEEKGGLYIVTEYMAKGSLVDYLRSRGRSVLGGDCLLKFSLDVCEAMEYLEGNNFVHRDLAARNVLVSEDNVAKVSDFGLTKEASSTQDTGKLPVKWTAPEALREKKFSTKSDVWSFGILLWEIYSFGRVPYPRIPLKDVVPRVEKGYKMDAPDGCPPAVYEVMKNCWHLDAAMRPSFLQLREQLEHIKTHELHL
In short: as §1

[10] = molecular target: T10, 380 human recombinant protein kinases (Homo sapiens, UniProt P00519, Y253F); details: Abl(Y253F)(h), read-out: Inhibition rate
T10 construct: purchased Eurofins (Celle Lévescault)
In short: as §1

[11] = molecular target: T11, 380 human recombinant protein kinases (Homo sapiens, UniProt Q9H422); details: HIPK3(h), read-out: Inhibition rate
T11 construct: purchased Eurofins (Celle Lévescault)
In short: as §1

[12] = molecular target: T12, 380 human recombinant protein kinases (Homo sapiens, UniProt P17948); details: Flt1(h), read-out: Inhibition rate
T12 construct: purchased Eurofins (Celle Lévescault)
T12 sequence (P17948 27-1338): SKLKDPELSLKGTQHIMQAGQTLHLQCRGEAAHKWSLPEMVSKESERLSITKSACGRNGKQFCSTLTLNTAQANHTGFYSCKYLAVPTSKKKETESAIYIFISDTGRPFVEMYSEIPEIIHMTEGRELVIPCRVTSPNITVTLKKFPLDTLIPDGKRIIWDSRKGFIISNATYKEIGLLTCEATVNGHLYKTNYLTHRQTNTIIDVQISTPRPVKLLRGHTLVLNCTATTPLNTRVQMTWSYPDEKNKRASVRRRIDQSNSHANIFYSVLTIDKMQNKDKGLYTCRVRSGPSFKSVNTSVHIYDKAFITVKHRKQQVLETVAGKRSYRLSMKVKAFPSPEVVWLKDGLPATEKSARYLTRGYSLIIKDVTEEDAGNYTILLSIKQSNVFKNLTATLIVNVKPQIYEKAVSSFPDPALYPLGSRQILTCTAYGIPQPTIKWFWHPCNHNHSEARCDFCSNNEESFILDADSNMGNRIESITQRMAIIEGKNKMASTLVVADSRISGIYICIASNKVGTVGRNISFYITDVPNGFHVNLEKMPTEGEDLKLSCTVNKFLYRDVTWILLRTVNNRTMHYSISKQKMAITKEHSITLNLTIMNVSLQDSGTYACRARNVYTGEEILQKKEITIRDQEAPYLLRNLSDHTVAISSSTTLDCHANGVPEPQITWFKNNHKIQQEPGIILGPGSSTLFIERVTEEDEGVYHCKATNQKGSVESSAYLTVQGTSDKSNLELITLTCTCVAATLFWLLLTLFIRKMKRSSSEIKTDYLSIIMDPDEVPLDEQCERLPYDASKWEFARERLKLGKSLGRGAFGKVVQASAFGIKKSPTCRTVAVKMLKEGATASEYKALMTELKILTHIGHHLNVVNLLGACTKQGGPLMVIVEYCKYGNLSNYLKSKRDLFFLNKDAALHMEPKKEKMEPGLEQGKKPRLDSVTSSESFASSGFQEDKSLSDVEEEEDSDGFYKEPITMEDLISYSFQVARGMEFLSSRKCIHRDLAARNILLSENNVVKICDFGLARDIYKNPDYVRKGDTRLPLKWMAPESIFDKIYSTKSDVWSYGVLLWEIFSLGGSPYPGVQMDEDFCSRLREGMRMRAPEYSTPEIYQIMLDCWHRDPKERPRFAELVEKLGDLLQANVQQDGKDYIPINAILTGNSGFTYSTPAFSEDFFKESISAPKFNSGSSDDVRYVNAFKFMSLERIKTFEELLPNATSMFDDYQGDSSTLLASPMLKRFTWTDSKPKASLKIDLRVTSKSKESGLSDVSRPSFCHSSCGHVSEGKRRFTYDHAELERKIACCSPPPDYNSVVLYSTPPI
In short: as §1

## C=CC(=O)Nc1cc(-c2cc(-c3cc4c([nH]3)CCNC4=O)ccn2)ccc1OC(F)(F)F [compound 11]
[1]; 10 nM
  inhibition at 0.01 µM: -4%
[1]; 100 nM
  inhibition at 0.1 µM: -6%
[1]; 1000 nM
  inhibition at 1 µM: 0%
[2]; 10 nM
  inhibition at 0.01 µM: 7%
[2]; 100 nM
  inhibition at 0.1 µM: 8%
[2]; 1000 nM
  inhibition at 1 µM: 7%
[3]; 10 nM
  inhibition at 0.01 µM: -6%
[3]; 100 nM
  inhibition at 0.1 µM: 0%
[3]; 1000 nM
  inhibition at 1 µM: -1%
[4]; 10 nM
  inhibition at 0.01 µM: -11%
[4]; 100 nM
  inhibition at 0.1 µM: -18%
[4]; 1000 nM
  inhibition at 1 µM: -11%
[5]; 10 nM
  inhibition at 0.01 µM: -1%
[5]; 100 nM
  inhibition at 0.1 µM: -1%
[5]; 1000 nM
  inhibition at 1 µM: -1%
[6]; 10 nM
  inhibition at 0.01 µM: -4%
[6]; 100 nM
  inhibition at 0.1 µM: -7%
[6]; 1000 nM
  inhibition at 1 µM: -3%
[7]; 10 nM
  inhibition at 0.01 µM: 6%
[7]; 100 nM
  inhibition at 0.1 µM: 13%
[7]; 1000 nM
  inhibition at 1 µM: 22%
[8]; 10 nM
  inhibition at 0.01 µM: -9%
[8]; 100 nM
  inhibition at 0.1 µM: -1%
[8]; 1000 nM
  inhibition at 1 µM: 38%
[9]; 10 nM
  inhibition at 0.01 µM: -2%
[9]; 100 nM
  inhibition at 0.1 µM: -1%
[9]; 1000 nM
  inhibition at 1 µM: -13%
[10]; 10 nM
  inhibition at 0.01 µM: 0%
[10]; 100 nM
  inhibition at 0.1 µM: 2%
[10]; 1000 nM
  inhibition at 1 µM: 21%
[11]; 10 nM
  inhibition at 0.01 µM: -9%
[11]; 100 nM
  inhibition at 0.1 µM: -8%
[11]; 1000 nM
  inhibition at 1 µM: 1%
[12]; 10 nM
  inhibition at 0.01 µM: -24%
[12]; 100 nM
  inhibition at 0.1 µM: -17%
[12]; 1000 nM
  inhibition at 1 µM: -11%
